# System: human serum antirhamnose antibody (IgG and IgM)
# Experiment: ELISA covalent engagement of serum anti-rhamnose antibody
# Type: binding
# Settings: 2 μM compound, 2% human serum, 48 h; rhamnose 100 mM added after incubation
# Description: Figure 2 Capacity of Rha-cARMs to specifically covalently engage monoclonal anti-23F and serum anti-rhamnose. A. Chemical structures of the molecules investigated. B. Assessment of covalent vs noncovalent (cARM/ARM) engagement of human serum antirhamnose antibody via an ELISA assay. Each ARM/cARM (2 μM) was incubated with 2% human serum for 48 h and subsequently incubated directly on a streptavidin ELISA plate. Recruitment was evaluated by the addition of anti-IgG or anti-IgM HRP-conjugated secondary antibody with subsequent chromogenic substrate addition. “Comp” represents the addition of competitor rhamnose (500 mM) during 48 h of incubation. “Quench” refers to the addition of competitor rhamnose (100 mM) prior to ELISA plate binding but after 48 h of reaction incubation. C. SDS-PAGE fluorescent image of anti-23F antibody covalently labeled by fluorophore substituted Rha-cARMs (6–8). A representative protein stain associated with each gel is included on the left side of the fluorescent gel images. In all cases, 2 μM anti-23F antibody is incubated with 4 μM cARM (2 equiv) for 24 h in PBS spiked with 10% human serum. Where noted, L-rhamnose (100 mM, Rha. C) was used during incubation as a competitor for specific covalent labeling. Where noted, a free fluoresceine competitor (2.5 mM, Fluor. C) was used to distinguish fluorescein-promoted covalent labeling from rhamnose-promoted. The darker background in gels corresponding to cARM 6, 7 is attributed to the differing capacity of free cARM-fluorophore (fluoroscein vs A647) to be retained in gel, as well as an alternative imaging channel (Cy2 for fluorescein, Cy5 for A647). […] D. Kinetic SDS-PAGE fluorescence imaging experiment to determine Rha-AI-cARM/anti-23F antibody labeling kinetics using A647-cARM (8). cARM 8 (2–100 μM) was incubated with anti-23F antibody (2 μM) for up to 4 h. A representative fluorescence gel image is included corresponding to compound 8 (50 μM) incubated with either anti-23F antibody or isotype human IgG. Densitometry analysis with ImageJ was used to quantify relative band intensities. […] The error is calculated by alternative fits of initial rates data (all within the linear labeling range).
# Next, we tested if cARM tool compounds can selectively label endogenous human polyclonal antirhamnose antibodies via ELISA (4 α-O rhamnose or 5 α-S rhamnose) (Figure 2B). cARMs (4, 5) and noncovalent analog ARMs (1, 2) were incubated with 2% human serum for 48 h followed by addition to a streptavidin-ELISA plate. Antibody recruitment to the plate surface was measured via the addition of HRP-conjugated anti-IgG or anti-IgM secondary antibody, followed by a chromogenic substrate. […] In the absence of a competitor, we observed robust absorbance signal in samples incubated with cARM. […]
row,SMILES,"antibody binding signal, quench control"
1,C[C@@H]1O[C@@H](OCc2cn(CCOCCNC(=O)OCCOCCOCCOCCOCCOCCOCCOCCNC(=O)CCCC[C@@H]3SC[C@@H]4NC(=O)N[C@@H]43)nn2)[C@H](O)[C@H](O)[C@H]1O [compound 1],baseline signal
2,C[C@@H]1O[C@@H](SCc2cn(CCOCCNC(=O)OCCOCCOCCOCCOCCOCCOCCOCCNC(=O)CCCC[C@@H]3SC[C@@H]4NC(=O)N[C@@H]43)nn2)[C@H](O)[C@H](O)[C@H]1O [compound 2],baseline signal
3,C[C@@H]1O[C@@H](OCc2cn(CCc3cn(C(=O)OCCOCCOCCOCCOCCOCCOCCOCCNC(=O)CCCC[C@@H]4SC[C@@H]5NC(=O)N[C@@H]54)cn3)nn2)[C@H](O)[C@H](O)[C@H]1O [compound 4],significant antibody binding signal

# From paper PMC10683482, “Offsetting Low-Affinity Carbohydrate Binding with Covalency to Engage Sugar-Specific Proteins for Tumor-Immune Proximity Induction” (ACS Central Science, 2023)
